Measurements published in patent US11415579B2, “Assay for measuring a rate of reaction between a target and a ligand candidate” (Imperial College Innovations Ltd., priority 2016, dated 2022).

Tests used:
[1] = molecular target: T1, Cdk2(T182C) (C177A) (Homo sapiens, UniProt P24941, C177A/T182C); assay: Kinetic thiol consumption assay with Cdk2 mutant T182C; format: binding; design: key to Rate enhancement, Cdk2 T182C: rate constant with Cdk2 ÷ rate constant with model thiol (fold); conditions: additional mutation C177A; for Rate constant with Cdk2 T182C: Protein: Cdk2, cysteine position T182C, in h^-1
T1 construct: poly-histidine; made in house; host or cells: E. coli
How it was run: (§1)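 Thiol consumption was monitored kinetically using 5 μM Cdk2 (C177A plus one introduced cysteine) in degassed phosphate buffer at pH 8 with TCEP beads. Plates were kept 1 h at room temperature before fluorescence reading, and rate constants came from exponential decay fitting.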

[2] = molecular target: T2, Cdk2(N272C) (C177A) (Homo sapiens, UniProt P24941, C177A/N272C); assay: Kinetic thiol consumption assay with Cdk2 mutant N272C; format: binding; design: key to Rate enhancement, Cdk2 N272: rate constant with Cdk2 ÷ rate constant with model thiol (fold); conditions: for Rate enhancement, Cdk2 N272: Cdk2 N272, additional mutation C177A; for Rate constant with Cdk2 N272C: Protein: Cdk2, cysteine position N272C, additional mutation C177A, in h^-1
T2 construct: poly-histidine; made in house; host or cells: E. coli
How it was run: as §1

[3] = molecular target: T3, Cdk2(S181C) (C177A) (Homo sapiens, UniProt P24941, C177A/S181C); assay: Kinetic thiol consumption assay with Cdk2 mutant S181C; format: binding; design: key to Rate enhancement, Cdk2 S181C: rate constant with Cdk2 ÷ rate constant with model thiol (fold); conditions: additional mutation C177A; for Rate constant with Cdk2 S181C: Protein: Cdk2, cysteine position S181C, in h^-1
T3 construct: poly-histidine; made in house; host or cells: E. coli
How it was run: as §1

[4] = Kinetic thiol consumption assay with model thiol glutathione; format: physicochemical; design: Rate constant with glutathione (k(GSH)): unit not given here; conditions: for Rate constant with glutathione (k(GSH)): 500 μM ligand, 5 μM thiol, phosphate buffer pH 8; for Rate constant with Glutathione: Protein: Glutathione, cysteine position NA, in h-1
How it was run: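 GSH 5 μM, degassed phosphate buffer pH 8, TCEP beads 2% v/v; acrylamide added; RT, 1 h; fluorescence ex/em 380/470 nm; normalized to DMSO/thiol control; k from first-order exponential decay fit.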

[5] = molecular target: T4, Cdk2(H71C) (C177A) (Homo sapiens, UniProt P24941, C177A/H71C); assay: Kinetic thiol consumption assay with Cdk2 mutant H71C; format: binding; design: key to Rate enhancement, Cdk2 H71C: rate constant with Cdk2 ÷ rate constant with model thiol (fold); conditions: additional mutation C177A; for Rate constant with Cdk2 H71C: Protein: Cdk2, cysteine position H71C, in h^-1
T4 construct: poly-histidine; made in house; host or cells: E. coli
How it was run: as §1

[6] = molecular target: T5, Cdk2(C177A, F80C) (Homo sapiens, UniProt P24941, C177A/F80C); assay: Kinetic thiol consumption assay with Cdk2 mutant F80C, incl. kobs versus concentration (Kd, k2); format: binding; design: key to Rate enhancement, Cdk2 F80C: Cdk2 rate constant divided by model-thiol rate constant; conditions: additional mutation C177A; for Rate constant with Cdk2 F80C: Protein: Cdk2, cysteine position F80C, in h^-1
T5 construct: poly-histidine; made in house; host or cells: E. coli
How it was run: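 His-tagged Cdk2(C177A/F80C) from E. coli or model thiol, 5 μM in degassed phosphate buffer pH 8 with TCEP beads, reacted with acrylamide ligands; fluorescence (ex/em 380/470 nm) normalized to DMSO control and fitted to first-order decay for kobs. Kd and k2 obtained from hyperbolic fit of kobs versus ligand concentration.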

[7] = molecular target: T6, human cyclin-dependent kinase 2 (Cdk2) (Homo sapiens, UniProt P24941); assay: Kinetic thiol consumption assay with wild type Cdk2 (C177); format: binding; design: key to Rate enhancement, Cdk2 WT: k(Cdk2) divided by k(model thiol); Rate constant with Cdk2 (k(Cdk2)): unit not given here; conditions: for Rate constant with Cdk2 (k(Cdk2)): 500 μM ligand, 5 μM thiol, phosphate buffer pH 8; for Rate enhancement, Cdk2 WT: no additional mutations; for Rate constant with Cdk2 WT: Protein: Cdk2, cysteine position WT, in h^-1; for k(Cdk2)/k(Cdk2_mut) rate enhancement: model thiol Cdk2[C177A, F80C, K278C]; for k(Cdk2)/k(GSH) rate enhancement: model thiol glutathione
T6 construct: poly-histidine; made in house; host or cells: E. coli
How it was run: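 His-tagged human Cdk2 from E. coli (sole surface cysteine C177) or a model thiol, each 5 μM in degassed phosphate buffer pH 8 with immobilized TCEP, reacted with acrylamides at room temperature. Fluorescence (ex 380/em 470) normalized to DMSO/thiol control over time; first-order rate constants, Cdk2 rate divided by model-thiol rate.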

[8] = molecular target: T7, Cdk2[C177A, F80C, K278C] (Homo sapiens, UniProt P24941, C177A/F80C/K278C); assay: Kinetic thiol consumption assay with mutant Cdk2 as model thiol; format: binding; design: unit not given here; conditions: 500 μM ligand, 5 μM thiol, phosphate buffer pH 8
T7 construct: poly-histidine; made in house; host or cells: E. coli
How it was run: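 First-order rate constants were derived by exponential-decay fitting of DMSO/thiol-normalized fluorescence (380/470 nm) over time at room temperature. Thiol was 5 μM E. coli-expressed His-tagged Cdk2 mutant C177A/F80C/K278C in degassed pH 8 phosphate buffer containing 2% v/v TCEP beads.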

[9] = molecular target: T8, Cdk2(S276C) (C177A) (Homo sapiens, UniProt P24941, C177A/S276C); assay: Kinetic thiol consumption assay with Cdk2 mutant S276C; format: binding; design: key to Rate enhancement, Cdk2 S276C: rate constant with Cdk2 ÷ rate constant with model thiol (fold); conditions: additional mutation C177A; for Rate constant with Cdk2 S276C: Protein: Cdk2, cysteine position S276C, in h^-1
T8 construct: poly-histidine; made in house; host or cells: E. coli
How it was run: as §1

[10] = molecular target: T9, Cdk2(R122C) (C177A) (Homo sapiens, UniProt P24941, C177A/R122C); assay: Kinetic thiol consumption assay with Cdk2 mutant R122C; format: binding; design: key to Rate enhancement, Cdk2 R122C: rate constant with Cdk2 ÷ rate constant with model thiol (fold); conditions: additional mutation C177A; for Rate constant with Cdk2 R122C: Protein: Cdk2, cysteine position R122C, in h-1
T9 construct: poly-histidine; made in house; host or cells: E. coli
How it was run: as §1

| Compound | Rate enhancement, Cdk2 T182C [1] | Rate enhancement, Cdk2 N272 [2] | Rate constant with Cdk2 N272C [2] | Rate enhancement, Cdk2 S181C [3] | Rate constant with Cdk2 S181C [3] | Rate enhancement, Cdk2 H71C [5] | Rate constant with Cdk2 H71C [5] | Rate enhancement, Cdk2 F80C [6] | Rate constant with Cdk2 F80C [6] | Rate constant with Cdk2 (k(Cdk2)) [7] | Rate enhancement, Cdk2 WT [7] | Rate constant with Cdk2 WT [7] | k(Cdk2)/k(Cdk2_mut) rate enhancement [7] | k(Cdk2)/k(GSH) rate enhancement [7] | Rate constant with Cdk2[C177A, F80C, K278C] (k(Cdk2_mut)) [8] | Rate enhancement, Cdk2 S276C [9] | Rate constant with Cdk2 S276C [9] | Rate enhancement, Cdk2 R122C [10] | Rate constant with glutathione (k(GSH)) [4] | Rate constant with Glutathione [4] | other results |
| --- | --- | --- | --- | --- | --- | --- | --- | --- | --- | --- | --- | --- | --- | --- | --- | --- | --- | --- | --- | --- | --- |
| C=CC(=O)Nc1cccc(-c2cc3ccccc3[nH]2)c1 [EL-1098] | 2.526 | 0.8491 | 0.009773 | 0.4335 | 0.00499 | 0.2587 | 0.002978 | 0.7203 | 0.008291 | 0.01063 | 0.9235 | 0.01063 | 0.3049 | 0.9268 | 0.03487 | 1.017 | 0.0117 | 0.5598 | 0.01147 | 0.01151 | Rate constant with Cdk2 T182C [1]: 0.02907; Rate constant with Cdk2 R122C [10]: 0.006443 |
| C=CC(=O)NCCc1c[nH]c2ccccc12 [EL-1174] | 1.377 | 0 |  | 0.5058 | 0.002125 | 0.8572 | 0.003601 | 3.249 | 0.01365 | 0.0009 | 0.3449 | 0.001449 | 0.131 | 0.3555 | 0.00688 | 0.716 | 0.003008 | 0.532 | 0.00253 | 0.004201 | Rate constant with Cdk2 T182C [1]: 0.005783; Rate constant with Cdk2 R122C [10]: 0.002235 |
| C=CC(=O)N1CCCC2(CCCc3ccccc32)C1 (centres unmarked) [CA-084] | 3.848 | 0.06817 | 0.001146 | 0.4258 | 0.007158 | 0.8209 | 0.0138 | 1.811 | 0.03044 | 0.00872 | 0.5186 | 0.008718 | 1.989 | 0.8701 | 0.00438 | 1.079 | 0.01813 | 0.2694 | 0.01002 | 0.01681 | Rate constant with Cdk2 T182C [1]: 0.06469; Rate constant with Cdk2 R122C [10]: 0.004528 |

The next lines start with results.

| Rate enhancement, Cdk2 T182C [1] | Rate enhancement, Cdk2 N272 [2] | Rate constant with Cdk2 N272C [2] | Rate enhancement, Cdk2 S181C [3] | Rate constant with Cdk2 S181C [3] | Rate enhancement, Cdk2 H71C [5] | Rate constant with Cdk2 H71C [5] | Rate enhancement, Cdk2 F80C [6] | Rate constant with Cdk2 F80C [6] | Rate constant with Cdk2 (k(Cdk2)) [7] | Rate enhancement, Cdk2 WT [7] | Rate constant with Cdk2 WT [7] | k(Cdk2)/k(Cdk2_mut) rate enhancement [7] | k(Cdk2)/k(GSH) rate enhancement [7] | Rate constant with Cdk2[C177A, F80C, K278C] (k(Cdk2_mut)) [8] | Rate enhancement, Cdk2 S276C [9] | Rate constant with Cdk2 S276C [9] | Rate enhancement, Cdk2 R122C [10] | Compound | Rate constant with glutathione (k(GSH)) [4] | Rate constant with Glutathione [4] | other results |
| --- | --- | --- | --- | --- | --- | --- | --- | --- | --- | --- | --- | --- | --- | --- | --- | --- | --- | --- | --- | --- | --- |
| 0 | 61.33 | 0.3682 | 4.792 | 0.02877 | 0.1972 | 0.001184 | 0.6003 | 0.003604 | 0.00698 | 1.749 | 0.0105 | 1.682 | 2.491 | 0.00415 | 0.4087 | 0.002454 | 0.3071 | C=CC(=O)NCC1CCCN1S(=O)(=O)c1ccc(C)cc1 (centres unmarked) [CA-118] | 0.0028 | 0.006004 | Rate constant with Cdk2 R122C [10]: 0.001844 |
| 0.474 | 4.534 | 0.0128 | 0.7428 | 0.002097 | 0 |  | 0 |  | 0.00103 | 0.3642 | 0.001028 | 0.2449 | 0.3619 | 0.00419 | 2.7205E−11 | 7.68E−14 | 0.9706 | C=CC(=O)NC(C)c1cccc(N2CCOCC2)c1 (centres unmarked) [EL-1153] | 0.00284 | 0.002823 | Rate constant with Cdk2 T182C [1]: 0.001338; Rate constant with Cdk2 R122C [10]: 0.00274 |
| 0.7193 | 0.5 | 0.001026 | 0.4386 | 0.0009 | 3.1842E−11 | 6.534E−14 | 0.5692 | 0.001168 | 0.00194 | 1.461 | 0.002998 | 0.5882 | 0.9011 | 0.0033 | 0.393 | 0.0008064 | 0 | C=CC(=O)NCc1ccc(OC)cc1 [BN-63] | 0.00215 | 0.002052 | Rate constant with Cdk2 T182C [1]: 0.001476 |
| 1.009 | 0.325 | 0.002106 | 0.9519 | 0.006168 | 0.3667 | 0.002376 | 0.1379 | 0.0008934 | 0.00213 | 0.3281 | 0.002126 | 0.4738 | 0.3244 | 0.00449 | 0.7301 | 0.004731 | 0.3573 | C=CC(=O)N1CCCCCC1c1cccnc1 (centres unmarked) [EL-1059] | 0.00656 | 0.00648 | Rate constant with Cdk2 T182C [1]: 0.00654; Rate constant with Cdk2 R122C [10]: 0.002315 |
